The subject of test [1] is HCV replicon (BB7 sequence) in Huh-7-Clone A cells. Kind of test: HCV replicon assay: ELISA of NS5A protein in replicon-containing cells (Inhibition of Viral RNA Replication). Type of test: cell-based. From the text: Antiviral activity of representative compounds of the invention was first evaluated in a human liver-derived cell line (Huh-7-Clone A) containing the HCV replicon (BB7 sequence) (See Lohmann et al. Science. 1999, 285:110-3; Blight K J et al., Science. 2000, 290:1972-4; Pietschmann, T. et al., J. Virol. 2001, 73:1252-1264; and Lohmann, V. et al., J. Virol. 2001, 75:1437-1449). The HCV replicon is a subgenomic viral RNA that expresses the HCV proteins required for its own replication. These proteins include non-structural proteins NS3, NS4A, NS4B, NS5A and NS5B. The replicon also contains a foreign gene encoding a drug-selectable marker (neomycin phosphotransferase) to allow for G418 (neomycin) selection of cells that contain the replicon.
An ELISA (enzyme-linked immunosorbant assay) was used to determine the effect of compounds within the scope of the invention on the amount of HCV NS5A protein produced after a 72-hour incubation of the replicon-containing cells in the presence of varying concentrations of compound. COSTAR® 96-well cell culture plates were used but other known cell culture plates may be used. After incubation, media is removed from wells and the cells are fixed to the assay plate using 0.05% glutaraldehyde. The glutaraldehyde is then washed off using phosphate-buffered saline (PBS) following a 1 hour incubation and cells are blocked for non-specific antibody binding using for example SUPERBLOCK® reagent (blocking buffer) in PBS. The blocking agent is rinsed from the cells with PBS after 1 hour at 37° C. and primary monoclonal antibody is added to each well containing compound. Primary antibody is incubated for 1 hour at 37° C. and rinsed 3 times with PBS containing 0.02% TWEEN-20™ before addition of Horseradish Peroxidase (HRP) conjugated secondary antibody. HRP is incubated for 1 hour at 37° C. and rinsed several times, first with PBS/TWEEN-20™ followed by PBS alone. To quantify peroxidase activity, 3,3′,5, 5′-tetramethylbenzidine (TMB) substrate is added to the plate and after 30 minutes, the plates are read in an ELISA plate reader at an OD of 650 nm. Compound dose response was measured in an 8-point dose curve diluted serially to determine the inhibitory concentration at 50% (EC50 value). […] Ranges of 50% effective concentrations (EC50s) for representative compounds within the scope of this invention are listed in Table 1. Preferred compounds have 50% effective concentrations at about 30 μM or less, more preferred compounds have 50% effective concentrations at about 5 μM or less, and most preferred compounds have 50% effective concentrations at about 0.5 μM or less.
(In general: Replicon systems follow genome replication, usually without infectious particles.)

Another test addresses T1, HCV NS5B (Hepatitis C virus genotype 1b, UniProt Q9WMX2).
T1 construct: fusion protein, of which the carboxyl terminal 21 amino acids were removed to enhance its solubility; His tag (GSHHHHHH); made in house; host or cells: E. coli
Kind of test: Inhibition of viral RNA-dependent RNA polymerase (RdRp), in vitro biochemical assay. Further details: species or system HCV genotype 1b virus (BB7). The note with it: read-out: HCV pol-BB7 IC50. The source says:
The HCV NS5B-directed RdRp activity was established and characterized in a standard in vitro biochemical assay using a purified HCV NS5B protein derived from the consensus sequence of a patient infected with HCV genotype 1b virus (BB7). (See Blight K J et al., Science. 2000, 290:1972-4). The NS5B consensus sequence was cloned and expressed in E. coli as a histidine tagged (GSHHHHHH) fusion protein, of which the carboxyl terminal 21 amino acids were removed to enhance its solubility.
In addition to evaluating their activity in the replicon assay, representative compounds within the scope of the present invention, as shown in examples 1-453 of Table 1, were also evaluated for antiviral activity using this assay. A measure of the inhibitory activity of compounds of the invention may be expressed as IC50 values. IC50 values represent the concentration of the compound at which 50% of the RdRp activity is inhibited. […] These low concentrations of test compounds required to achieve 50% inhibition of the RdRp activity indicate that the compounds of the invention are effective at inhibiting RNA synthesis by viral RdRp enzymes.

Where [2] appears, read: ranges of EC50 in HCV replicon assay, read-out: Replicon.
Setting [3] is: HCV replicon assay, ranges of EC50, read-out: Replicon.
[4] abbreviates: HCV NS5B RdRp, BB7, activity class.
Where [5] appears, read: HCV replicon assay, ranges of 50% effective concentration (EC50), read-out: Replicon.
Setting [6] is: HCV NS5B polymerase, BB7 (genotype 1b), values given as range classes A-D.
The mark [7] stands for this setting: HCV NS5B RdRp, BB7, class symbols A-D.
Setting [8] is: purified His-tagged NS5B (BB7), carboxyl terminal 21 amino acids removed.
The mark [9] stands for this setting: Hepatitis C virus, Huh-7-Clone A, NS5A ELISA, 72-hour incubation, ranges of EC50, read-out: Replicon.
Where [10] appears, read: Hepatitis C virus, HCV replicon assay, ranges of 50% effective concentration (EC50), read-out: Replicon.

In general, IC50 refers to the concentration needed to halve the response being measured.

Where two headings read alike, the source gives them in different places.

For the compound “2-(2,4-Difluoro-phenyl)-5-isopropoxy-benzofuran-3-carboxylic acid methylamide [Example 91]”, the EC50 in test [1] (setting [2]) was less than 30 µM. In addition, the IC50 on HCV NS5B (HCV NS5B RdRp, BB7 genotype 1b) is not above 0.5 µM.
As for “2-(4-Bromo-phenyl)-5-isopropoxy-benzofuran-3-carboxylic acid methylamide [Example 104]”, in test [1] (setting [2]), the EC50 is less than 10 µM. The IC50 at HCV NS5B (HCV NS5B RdRp, BB7 genotype 1b) is not above 0.5 µM.
Regarding “2-(4-Fluoro-phenyl)-5-hydroxy-6-[methanesulfonyl-(2-oxo-propyl)-amino]-benzofuran-3-carboxylic acid methylamide [Example 354]”, the EC50 in test [1] (setting [3]) is less than 10 µM. The IC50 at HCV NS5B (setting [4]) was 0.5 to 5 µM.
With “2-(4-Fluoro-phenyl)-5-hydroxy-6-morpholin-4-yl-benzofuran-3-carboxylic acid methylamide [Example 124]”, the EC50 in test [1] (setting [2]) was less than 10 µM. On HCV NS5B (HCV NS5B RdRp, BB7 genotype 1b), the IC50 fell in the range of 0.5 to 5 µM.
For “2-(4-Fluoro-phenyl)-5-isopropoxy-6-ureido-benzofuran-3-carboxylic acid methylamide [Example 135]”, in that order: less than 10 µM and not above 0.5 µM.
For the compound “2-(4-Fluoro-phenyl)-5-methoxy-6-(2H-[1,2,4]triazol-3-yl)-benzofuran-3-carboxylic acid methylamide [Example 358]”, the EC50 in test [1] (setting [3]) is less than 1 µM. In addition, on HCV NS5B (setting [4]), the IC50 is not above 0.5 µM.
On to “2-(4-Fluoro-phenyl)-5-methoxy-6-(5-methyl-[1,3,4]oxadiazol-2-yl)-benzofuran-3-carboxylic acid methylamide [Example 430]”, for which the EC50 in test [1] (setting [5]) is less than 10 µM. The IC50 on HCV NS5B (setting [6]) is not above 0.5 µM.
As to “2-(4-Fluoro-phenyl)-6-(1H-imidazol-2-yl)-5-methoxy-benzofuran-3-carboxylic acid methylamide [Example 296]”, the EC50 in test [1] (setting [3]) was less than 1 µM. Further, the IC50 on HCV NS5B (setting [7]) was not above 0.5 µM.
Taken in the same sequence, the figures for “2-(4-Fluoro-phenyl)-6-(1H-imidazol-4-yl)-5-methoxy-benzofuran-3-carboxylic acid methylamide [Example 295]” were less than 10 µM and not above 0.5 µM.
For “4-Chloro-6-[ethyl-(2-methoxy-acetyl)-amino]-2-(4-fluoro-phenyl)-5-methoxy-benzofuran-3-carboxylic acid methylamide [Example 432]”, the EC50 in test [1] (setting [5]) is less than 10 µM. The IC50 on HCV NS5B (setting [6]) lay in the range of 0.5 to 5 µM.
Take “5-(3-Cyano-benzyloxy)-2-(4-fluoro-phenyl)-6-(methanesulfonyl-methoxymethyl-amino)-benzofuran-3-carboxylic acid methylamide [Example 447]”: the EC50 in test [1] (setting [3]) is less than 1 µM. Also, the IC50 at HCV NS5B (HCV NS5B RdRp, BB7 (genotype 1b), reported as class symbols) is not above 0.5 µM.
For “6-(3-Amino-pyrrolidin-1-yl)-2-(4-fluoro-phenyl)-5-isopropoxy-2,3-dihydro-benzofuran-3-carboxylic acid methylamide [Example 15]”, the EC50 in test [1] (Huh-7-Clone A, NS5A ELISA, 72-hour incubation, ranges of EC50, read-out: Replicon) is less than 30 µM. Moreover, on HCV NS5B (setting [8]), the IC50 is 5 to 30 µM.
Turning to `CNC(=O)c1c(-c2ccoc2)oc2ccc(OC)cc12` [Example 1, 2-Furan-3-yl-5-methoxy-benzofuran-3-carboxylic acid methylamide], the EC50 in test [1] (Hepatitis C virus, 72 h, read-out: Replicon (μM)) is less than 30 µM. In addition, the IC50 at HCV NS5B (setting [8]) fell in the range of 0.5 to 5 µM.
On to `CNC(=O)c1c(-c2ccc(F)c(F)c2)oc2ccc(OC)cc12` [Example 3, 2-(3,4-Difluoro-phenyl)-5-methoxy-benzofuran-3-carboxylic acid methylamide], for which the EC50 in test [1] (setting [9]) is less than 10 µM. For the same compound, the IC50 on HCV NS5B (setting [8]) is not above 0.5 µM.
For `CNC(=O)c1c(-c2ccc(CNC(C)=O)cc2)oc2ccc(OC(C)C)cc12` [Example 4, 2-[4-(Acetylamino-methyl)-phenyl]-5-isopropoxy-benzofuran-3-carboxylic acid methylamide], in that order: less than 30 µM and 0.5 to 5 µM.
Consider `CNC(=O)c1c(-c2ccc(O)cc2)oc2ccc(OC(C)C)cc12` [Example 5, 2-(4-Hydroxy-phenyl)-5-isopropoxy-benzofuran-3-carboxylic acid methylamide], for which the EC50 in test [1] (setting [9]) is less than 10 µM. On HCV NS5B (setting [8]), the IC50 lay in the range of 0.5 to 5 µM.
For the compound `CNC(=O)c1c(-c2ccc(F)cc2)oc2cc(N3CCCC3)c(OC(C)C)cc12` [Example 6, 2-(4-Fluoro-phenyl)-5-isopropoxy-6-pyrrolidin-1-yl-benzofuran-3-carboxylic acid methylamide], in test [1] (setting [9]), the EC50 is less than 1 µM. Further, at HCV NS5B (setting [8]), the IC50 was not above 0.5 µM.
For `CNC(=O)c1c(-c2ccc(F)cc2)oc2ccc(OC(F)F)cc12` [Example 7, 5-Difluoromethoxy-2-(4-fluoro-phenyl)-benzofuran-3-carboxylic acid methylamide], in that order: less than 10 µM and 0.5 to 5 µM.
Taken in the same sequence, the figures for `CNC(=O)c1c(-c2ccc(F)cc2)oc2cc(NCCOC)c(OC(C)C)cc12` [Example 8, 2-(4-Fluoro-phenyl)-5-isopropoxy-6-(2-methoxy-ethylamino)-benzofuran-3-carboxylic acid methylamide] were less than 1 µM and not above 0.5 µM.
For `CNC(=O)c1c(-c2ccccc2)oc2ccc(C)cc12` [Example 9, 5-Methyl-2-phenyl-benzofuran-3-carboxylic acid methylamide], in that order: less than 10 µM and 0.5 to 5 µM.
With `CNC(=O)c1c(-c2ccc(F)cc2)oc2ccc(C)cc12` [Example 10, 5-Methyl-2-(4-fluoro-phenyl)benzofuran-3-carboxylic acid methylamide], the EC50 in test [1] (setting [9]) was less than 10 µM. For the same compound, the IC50 at HCV NS5B (setting [8]) lay in the range of 0.5 to 5 µM.
Taken in the same sequence, the figures for `CNC(=O)c1c(-c2ccccc2)oc2ccc(OCC(F)(F)F)cc12` [Example 11, 2-Phenyl-5-(2,2,2-trifluoro-ethoxy)-benzofuran-3-carboxylic acid methylamide] were less than 30 µM and more than 30 µM.
Taken in the same sequence, the figures for `CNC(=O)c1c(-c2ccc(F)cc2)oc2ccc(OC)cc12` [Example 12, 2-(4-Fluoro-phenyl)-5-methoxy-benzofuran-3-carboxylic acid methylamide] were less than 10 µM and not above 0.5 µM.
Regarding `CNC(=O)c1c(-c2ccc(F)cc2)oc2cc(NS(C)(=O)=O)c(-c3c(C)noc3C)cc12` [Example 407, 5-(3,5-Dimethyl-isoxazol-4-yl)-2-(4-fluoro-phenyl)-6-methanesulfonylamino-benzofuran-3-carboxylic acid methylamide], the EC50 in test [1] (setting [10]) is less than 10 µM.
The same measure, in the same setting: the result for `CNC(=O)c1c(-c2ccc(F)cc2)oc2cc(N(C)S(C)(=O)=O)c(OC(C)c3nccs3)cc12` (stereo not drawn) [Example 408, 2-(4-Fluoro-phenyl)-6-(methanesulfonyl-methyl-amino)-5-(1-thiazol-2-yl-ethoxy)-benzofuran-3-carboxylic acid methylamide] reads less than 1 µM.
